Here are results for three molecules from ChEMBL document CHEMBL4257491, “Discovery of indoleamine 2,3-dioxygenase inhibitors using machine learning based virtual screening” (Medchemcomm, 2018).

The target of data set [1] is T1, Indoleamine 2,3-dioxygenase 1 (Homo sapiens, UniProt P14902). Put plainly: Binding affinity to human HuH7 cell derived IDO1 expressed in Escherichia coli BL21 codon plus up to 10 uM by surface plasmon resonance analysis. On the technique in general: In SPR one partner is held on a chip, and binding of the other changes the refractive index at the surface.
Target sequence in this assay (P14902 whole entry, looked up): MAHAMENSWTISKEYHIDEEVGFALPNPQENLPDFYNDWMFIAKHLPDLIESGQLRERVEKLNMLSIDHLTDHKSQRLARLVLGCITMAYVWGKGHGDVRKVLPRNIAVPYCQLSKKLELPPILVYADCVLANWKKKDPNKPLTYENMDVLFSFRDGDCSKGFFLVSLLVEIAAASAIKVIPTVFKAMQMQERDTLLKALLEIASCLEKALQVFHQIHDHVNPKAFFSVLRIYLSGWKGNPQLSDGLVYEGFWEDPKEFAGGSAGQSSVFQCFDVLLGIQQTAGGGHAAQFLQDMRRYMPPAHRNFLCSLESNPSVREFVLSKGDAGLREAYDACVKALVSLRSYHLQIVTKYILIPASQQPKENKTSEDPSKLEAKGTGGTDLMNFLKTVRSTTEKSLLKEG
Data set [2] is described as follows: Cytotoxicity against human HuH7 cells assessed as survival rate at 10 uM after 24 hrs by MTT assay relative to control. The format is cell-based, Huh-7. As to conditions: read-out: Survival. On the technique in general: Formazan colour is commonly taken as a measure of viable cells.
Data set [3] deals with T1, Indoleamine 2,3-dioxygenase 1. The data set can be described thus: Inhibition of human HuH7 cell derived IDO1 expressed in Escherichia coli BL21 codon plus using L-tryptophan as substrate measured after 1 hr by fluorescence assay.
Target sequence in this assay (P14902 whole entry): as the sequence (P14902 whole entry, looked up) above
Data set [4] has the same target. The data set can be described thus: Inhibition of IDO1 in IFNgamma-stimulated human HuH7 cells at 10 uM using L-tryptophan as substrate measured after 24 hrs relative to control.
Target sequence in this assay (P14902 whole entry, looked up): as above
A short description of data set [5]: Cytotoxicity against human HuH7 cells assessed as survival rate at 1 uM after 24 hrs by MTT assay relative to control. It counts as cell-based, Huh-7. As to conditions: read-out: Survival.
Data set [6] deals with T1, Indoleamine 2,3-dioxygenase 1. The data set can be described thus: Inhibition of IDO1 in IFNgamma-stimulated human HuH7 cells at 1 uM using L-tryptophan as substrate measured after 24 hrs relative to control.
Target sequence in this assay (P14902 whole entry, looked up): as above

Active and inactive are the calls of the source. The rule behind the calls is not given here.

Take `Cc1c(-c2c(C)c(O)c3ccccc3c2O)oc2c1C(=O)C(=O)c1c-2ccc2c1CCCC2(C)C`: in data set [1], the outcome was Active. In addition, in data set [2], the viability at 24 h, 10 µM was 97.1%. The IC50 (as a rule, the concentration at which inhibition is half-maximal) in data set [3] came out at 4.1 µM. Moreover, the inhibition – broadly, the percentage by which the read-out fell short of the control – in data set [4] is 21%.

For the molecule `Cc1coc2c1C(=O)C(=O)c1c-2ccc2c1C=CCC2(C)C`, the outcome in data set [1] was Active. In data set [3], the IC50 turned out to be 4.68 µM. For the same molecule, the viability at 24 h, 1 µM in data set [5] was determined as 93%. The same molecule returned an inhibition in data set [6] of 66.7%.

As for `Cc1cccc2c3c(ccc12)C1=C(C(=O)C3=O)C(C)CO1` (configuration not stated), the outcome in data set [1] was Active. The concentration for half-maximal inhibition (IC50) in data set [3] came out at 1.3 µM. In addition, the viability at 24 h, 1 µM in data set [5] amounted to 94.7%. The molecule further displayed an inhibition in data set [6] of 54.3%.
